Here are results for 10 compounds from ChEMBL document CHEMBL1201862, “PubChem BioAssay data set” (2004).

Where a name gives a salt, the structure may show the parent alone.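 Tested at 5 concentrations; 48 h exposure; 96-well plates; endpoints linearly interpolated, else capped at highest concentration. The concentration for 50% growth inhibition is given as GI50.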 Activity calls are given as the source filed them. Rule as the data show it: active = GI50 up to about 1.1 µM and inactive = higher.

Holding throughout (test): NCI anticancer screen, dose series, 48 h
Assay [1] deals with HOP-92.
For assay [2], the system named is KM12.
Assay [3] deals with SK-MEL-2.
Assay [4] has as its system SR.
For assay [5], the system named is RXF 393.
Assay [6] has as its system SF-295.
Assay [7] relates to HCC 2998.
For assay [8], the system named is HOP-62.
In assay [9] the test system is MDA-MB-231.
Assay [10] has as its system A498.
The subject of assay [11] is LOX IMVI.
Assay [12] relates to NCI-H522.
Assay [13] concerns EKVX.
Assay [14] relates to OVCAR-4.
Assay [15] relates to M14.
Assay [16] has as its system 786-0.
The subject of assay [17] is U-251.
Assay [18] has as its system SNB-19.
Assay [19] deals with SW-620.
Assay [20] has as its system T47D.

As to `O=C(Nc1cccc(-c2cn3ccccc3n2)c1)c1ccncc1`, the GI50 in [1] is 98.2 µM (inactive); in assay [2], 32.6 µM (inactive); in assay [3], 22.6 µM (inactive); in assay [4] it was 24 µM (inactive); in assay [5] it was 64.4 µM (inactive); in assay [6] it was 40.7 µM (inactive). For the same compound, the GI50 in assay [7] was 56.2 µM (inactive); in [8], 33.2 µM (inactive); in assay [9] it was 32 µM (inactive); in assay [10] it was 76 µM (inactive); in [11] it was 38.3 µM (inactive); in assay [12], 23.6 µM (inactive). Also, the GI50 in [13] is 60.1 µM (inactive); in assay [14], 34.7 µM (inactive); in [15], 33.7 µM (inactive); in [16], 64.4 µM (inactive); in assay [17] it was 48.2 µM (inactive); in assay [18] it was 99.3 µM (inactive). Moreover, the values for the GI50 in assay [19] and in assay [20] were 64.9 µM (inactive) and 19.2 µM (inactive), respectively.

For `C[C@@H](CCO)OC1OC(COC(=O)C(C)(C)C)C(OC(=O)C(C)(C)C)C(OC(=O)C(C)(C)C)C1OC(=O)C(C)(C)C` (stereo partly drawn), the GI50 in [1] was 13.2 µM (inactive); in [2] it was > 10 µM (inactive); in [3], 43.6 µM (inactive); in assay [4], 84.7 µM (inactive); in assay [5], 7.46 µM (inactive); in assay [6], 4.13 µM (inactive). For the same compound, the GI50 in assay [7] is 16.6 µM (inactive); in [8], 85.5 µM (inactive); in assay [9], 3.4 µM (inactive); in [10] it was > 100 µM (inactive); in [11] it was 51.4 µM (inactive); in [12], 11.7 µM (inactive). The GI50 is 48.4 µM (inactive) in assay [13]; 27 µM (inactive) in [14]; 56.5 µM (inactive) in assay [15]; 39.5 µM (inactive) in assay [16]; 16.7 µM (inactive) in assay [17]; 12.6 µM (inactive) in [18]. Also, the results for the GI50 in [19] and in assay [20] were 51.1 µM (inactive) and > 100 µM (inactive), respectively.

With `CC1(C)CC(=O)C2=C(C1)OC1(CC2c2ccc(Cl)cc2)CC(c2ccc(Cl)cc2)C2=C(CC(C)(C)CC2=O)O1` (stereo not drawn), the GI50 in assay [1] is 3.52 µM (inactive); in assay [2], 16.7 µM (inactive); in [3] it was 18.8 µM (inactive); in assay [4], 4.83 µM (inactive); in assay [5] it was 26.1 µM (inactive); in assay [6] it was 22.2 µM (inactive). Moreover, the GI50 in [7] is 16.3 µM (inactive); in assay [8], 15.6 µM (inactive); in [9], 24.4 µM (inactive); in assay [10], 16 µM (inactive); in [11], 20.4 µM (inactive); in [12] it was 11.3 µM (inactive). Also, the GI50 is 16.1 µM (inactive) in [13]; 6.78 µM (inactive) in assay [14]; 23.1 µM (inactive) in assay [15]; 15.7 µM (inactive) in assay [16]; 22.5 µM (inactive) in assay [17]; 18.8 µM (inactive) in assay [18]. For the same compound, the GI50 was 20.7 µM (inactive) in assay [19] and > 10 µM (inactive) in assay [20].

For `NCCSSCCN` [CYSTAMINE HYDROCHLORIDE], the GI50 in assay [1], in assay [2], in [3], in assay [4], in [5] and in assay [6] was > 100 µM (inactive) each time. Further, the GI50 in assay [7], in assay [8], in [9], in [10], in [11] and in [12] was > 100 µM (inactive) in each case. Besides, the GI50 in assay [13], in assay [14], in assay [15], in assay [16], in assay [17] and in assay [18] was > 100 µM (inactive) in each case. The GI50 in assay [19] and in assay [20] was > 100 µM (inactive) throughout.

For `CCCCCCCCCCCCCC(=O)OC(/C=C/C(C)C)C(O)C(O)C(OC)C(=O)NC1CCCCN(C)C1=O` (stereo not drawn), the GI50 in assay [1] was 4 µM (inactive); in assay [2] it was 7.71 µM (inactive); in [3], 4.2 µM (inactive); in [4] it was 0.773 µM (active); in assay [5], 1.45 µM (inactive); in assay [6] it was 3.95 µM (inactive). Further, the GI50 in assay [7] is 7.96 µM (inactive); in [8], 3.15 µM (inactive); in assay [9], 1.86 µM (inactive); in assay [10], 4.67 µM (inactive); in [11], 7.23 µM (inactive); in assay [12], 8.73 µM (inactive). The GI50 was 9.06 µM (inactive) in assay [13]; 6.12 µM (inactive) in [14]; 1.56 µM (inactive) in assay [15]; 1.28 µM (inactive) in [16]; 6.5 µM (inactive) in assay [17]; 1.45 µM (inactive) in [18]. The values for the GI50 in assay [19] and in assay [20] were 1.36 µM (inactive) and > 10 µM (inactive), respectively.

In the case of `O=c1ccn([C@@H]2C[C@H]2CO)c(=O)[nH]1`, the GI50 in assay [1], in assay [2], in [3], in assay [4], in assay [5] and in assay [7] was > 100 µM (inactive) throughout. Besides, the GI50 in [8], in assay [9], in assay [10], in assay [11], in assay [12] and in [13] was > 100 µM (inactive) throughout. The GI50 in assay [14], in assay [15], in [16], in assay [17], in [18] and in assay [19] was > 100 µM (inactive) in each case. For the same compound, the GI50 in assay [20] was > 100 µM (inactive).

With `Cc1ccccc1OC(C)C(=O)NN1C(=O)CC(=O)NC1=S` (stereo not drawn), the GI50 in assay [1] is > 100 µM (inactive); in [2], 92 µM (inactive); in [3], > 100 µM (inactive); in assay [4], 49.1 µM (inactive); in assay [5], > 100 µM (inactive); in [6] it was 86.7 µM (inactive). In addition, the GI50 in assay [7], in assay [8], in assay [9], in assay [10], in [11] and in [12] was > 100 µM (inactive) in each case. The GI50 in [13] was > 100 µM (inactive); in assay [14], 63.2 µM (inactive); in [15], > 100 µM (inactive); in assay [16] it was > 100 µM (inactive); in assay [17], > 100 µM (inactive); in [18], > 100 µM (inactive). For the same compound, the GI50 in assay [19] is > 100 µM (inactive); in assay [20], 23.9 µM (inactive).

Consider `CCCCCCc1cc2cc(C(=O)Nc3cccc(C(F)(F)F)c3)c(=N)oc2cc1O`, for which the GI50 in assay [1] was 0.348 µM (active); in [2] it was 2.84 µM (inactive); in assay [3] it was 2.17 µM (inactive); in assay [4] it was 0.361 µM (active); in assay [5], 0.49 µM (active); in assay [6] it was 2.9 µM (inactive). Further, the GI50 in assay [7] was 2.74 µM (inactive); in assay [8] it was 1.9 µM (inactive); in assay [9] it was 2.31 µM (inactive); in assay [10], 2.92 µM (inactive); in assay [11] it was 1.26 µM (inactive); in assay [12], 0.351 µM (active). Moreover, the GI50 was 2.94 µM (inactive) in [13]; 2.32 µM (inactive) in assay [14]; 2.29 µM (inactive) in assay [15]; 1.37 µM (inactive) in assay [16]; 1.33 µM (inactive) in assay [17]; 2.39 µM (inactive) in assay [18]. The GI50 in assay [19] is 2.2 µM (inactive); in assay [20], 0.316 µM (active).

In the case of `Brc1ccc2c(-c3csc(-c4c[nH]c5ccc(Br)cc45)n3)c[nH]c2c1`, the GI50 in [1] is 3.2 µM (inactive); in assay [2], 2.42 µM (inactive); in assay [3] it was 5.35 µM (inactive); in assay [4], 3.89 µM (inactive); in [5] it was 3.02 µM (inactive); in assay [6], 3.19 µM (inactive). In addition, the GI50 in assay [7] is 2.32 µM (inactive); in assay [8], 12.1 µM (inactive); in assay [9] it was 3.42 µM (inactive); in assay [10], 3.01 µM (inactive); in [11], 1.94 µM (inactive); in [12], 2.11 µM (inactive). Also, the GI50 is 1.27 µM (inactive) in [13]; 6.9 µM (inactive) in assay [14]; 3.12 µM (inactive) in assay [15]; 2.31 µM (inactive) in assay [16]; 4.26 µM (inactive) in assay [17]; 4.09 µM (inactive) in assay [18]. Besides, the GI50 in assay [19] was 3.65 µM (inactive); in assay [20], 2.94 µM (inactive).

Consider `CCOC(=O)C(=CNc1ccc(F)c(F)c1)C(=O)OCC`, for which the GI50 is > 100 µM (inactive) in [1]; > 100 µM (inactive) in assay [2]; > 100 µM (inactive) in assay [3]; 39.2 µM (inactive) in assay [4]; > 100 µM (inactive) in assay [5]; > 100 µM (inactive) in assay [7]. Moreover, the GI50 in assay [8] is > 100 µM (inactive); in [9] it was > 100 µM (inactive); in assay [10], > 100 µM (inactive); in [11], > 100 µM (inactive); in assay [12], 81.7 µM (inactive); in assay [13], 81.5 µM (inactive). Moreover, the GI50 was 95.3 µM (inactive) in [14]; > 100 µM (inactive) in assay [15]; > 100 µM (inactive) in assay [16]; > 100 µM (inactive) in [17]; > 100 µM (inactive) in assay [18]; > 100 µM (inactive) in [19]. For the same compound, the GI50 in assay [20] is 69.7 µM (inactive).
